A melting point compilation (Tetko et al.; mined from patent text by program, amines drawn as free bases though some values may be those of a salt)

SMILES | melting point [°C]
OC[C@@H]1Cc2cc3ccccc3n2C[C@H]1CO (relative stereo) | 162 to 163
C=CCc1c(N2C(=O)C3=C(CCCC3)C2=O)ccc(Cl)c1O | 80 to 82.5
O=C1c2ccc(OCCn3ccnc3)cc2CCC1Cc1ccc(Br)cc1 (stereo not drawn) | 129 to 130
Cc1cccc(NC(=O)NCC(=O)N(c2ccccc2)c2ccccc2)c1 | 240
CC(O)COc1ccc(Oc2cccc(F)c2)cc1 (stereo not drawn) | 37 to 39
CN(C(=O)OC(C)(C)C)c1sc(-c2cccnc2)nc1Br | 88 to 91
Cc1nc(-c2ccc(C#N)cc2)sc1C(=O)O | 235 to 250
CC(=O)Oc1cc(OCCF)ccc1C(=O)O | 126 to 127
CCOc1cc([C@@H](CS(C)(=O)=O)N2C(=O)c3cccc(NC(=O)COC)c3C2=O)ccc1OC | 151 to 153
Cc1cc(C)c(N2C(=N)N(c3c(C)cccc3C)CC2C)c(C)c1 (stereo not drawn) | 128 to 130
NS(=O)(=O)c1ncccc1S | 102 to 104
OCc1ccc(-c2c3ccccc3nn2Cc2ccccc2)cc1 | 148 to 149
Nc1ccc2c(n1)CCO2 | 129 to 131
O=C1Nc2cc(F)ccc2C1c1ncnc2nn(C3CCCC3)cc12 (stereo not drawn) | 258 to 263
Nn1cc(C(=O)O)c(=O)c2cc(F)c(Cl)cc21 | 274
O=C(O)[C@H]1CCCN1C(=O)CCS | 68 to 70
CN1CCC2(CC1=O)c1ccccc1Oc1ccccc12 | 158 to 159
N#CNC(=S)Nc1ccccc1 | > 250
Cn1c(=O)c2c(N3CCCCC3)cccc2n2cnc(-c3noc(C4CC4)n3)c12 | 185 to 192
CN1CCCC(c2cccc3ccc(N)cc23)C1 (stereo not drawn) | 117 to 120
N#CCc1ccc(C2=CCCCC2)cc1 | 71 to 73
CC(C)(C)c1cc(NC(=O)Nc2ccc(-c3c(C(N)=O)[nH]c4ccccc34)cc2)no1 | 176 to 178
CCOP(=O)(Cc1ccc(NC(=O)/C=C/c2cnn(Cc3ccccc3)c2-c2ccc(F)cc2)cc1)OCC | 207 to 208
Nc1c(C=O)c(=O)n(-c2ccccc2)c(=O)n1-c1ccccc1 | 141 to 142
CN1CCN(C(=O)c2nc(-c3ccccc3)nc3c2c2ccc(Cl)cc2n3C)CC1 | 236 to 238
O=C1CCC(=NNc2ccccc2)c2ncccc2N1 | 206

SMILES | melting point [°C]
OCc1cc(OCc2ccc3ccccc3n2)no1 | 111 to 112
CC(O)c1cc(I)cc(S(N)(=O)=O)c1 (stereo not drawn) | 184 to 187
COC(=O)c1cc(NC(C)=O)c([N+](=O)[O-])cc1C(=O)OC | 119 to 120
N#CNC(=Nc1ccncc1)NCCCCOc1ccccc1 | 131
CCOC(=O)C(O)c1ccccc1Nc1c(Cl)cccc1Cl (stereo not drawn) | 155 to 156
CN1C(=O)CC[C@]2(C)c3ccc(Sc4nc5cccc(Cl)c5s4)cc3CC[C@@H]12 | 90 to 91
Cc1ccc2nc3n(c(=O)c2c1)-c1ccccc1C3=O | 266 to 267
COc1ccc(S(=O)(=O)N(CC(F)(F)F)c2ccc(Cl)cc2Cc2c(F)cccc2F)cc1OC | 70
COc1cc(N)c(Cl)cc1C(=O)NCC1CCN(CCCCOc2ccccc2)CC1 | 71 to 73
CN1CCC(=C2c3ccccc3C3=C(c4ccccc42)C2(C)C=CC3O2)CC1 (stereo not drawn) | 175 to 177
O=C(CN1C(=O)c2ccccc2C1=O)Nc1ccccc1-c1ccccc1 | 204
Fc1cc(C(F)(F)F)ccc1/C=C/c1nc(COc2ccc(-c3nc(Cn4ccnc4)cs3)cc2)co1 | 133 to 135
CC(=O)c1cccc(N2CCN(CCCCOc3ccc4ccc(=O)[nH]c4n3)CC2)c1Cl | 108 to 110
COc1ccc(CC(=NNS(=O)(=O)c2ccc(C)cc2)c2cc(OC)cc(OC)c2)cc1 | 120 to 121
COC(=O)c1snc(-c2cc(C(F)(F)F)cc(C(F)(F)F)c2)c1C(=O)OC | 71 to 74
CN(C)C1(c2ccccc2)CCC(CNC(=O)CCCCCc2c[nH]c3ccc(F)cc23)CC1 (stereo not drawn) | 52 to 54
CS(=O)(=O)c1ccc(-c2oc3ccccc3c(=O)c2-c2ccc(Cl)cc2)cc1 | 145 to 147
COC(=O)N1CCc2c(O)noc2C1 | 136 to 138
O=C1NC2CCC1NC2=O | 275 to 277
O=C1C(=O)c2ccccc2C2=C1SCC1(CCN(C3CCCCC3)CC1)O2 | 195 to 196
COc1ccc(Cl)c2c1CCCC2=O | 46 to 48
C[C@@H]1Cc2ccsc2[C@H](C)N1CCCNS(=O)(=O)c1ccc(N)cc1 (relative stereo) | 134 to 138
O=C1C=CC(O)(c2ccccn2)C=C1 | 116 to 117
CC(=N)NC/C(F)=C\CC[C@H](N)C(=O)O | 51.5 to 56.3
CC(C)CS(=O)(=O)N1C[C@@H](C)C[C@H](Nc2ncccc2-c2cnc3[nH]ccc3n2)C1 | 215 to 218
NC(=O)CCCCCOc1ccc(C#Cc2ccc(C(=O)O)cc2)cc1C12CC3CC(CC(C3)C1)C2 | 269 to 270

SMILES | melting point [°C]
O=C(c1ccc2nonc2c1)N1CC2CCC1CC2 | 138 to 139
CCCCCCc1cc(C(=O)O)c(C)o1 | 59 to 60
CC(C(=O)O)c1ccc(-n2cc(Cl)cn2)c(Cl)c1 (stereo not drawn) | 102 to 103
COc1cc2c(cc1Br)CC(C)OC2c1ccc([N+](=O)[O-])cc1 (stereo not drawn) | 128 to 129
CC(C)C[C@H](O)[C@H](O)[C@H](CC1CCCCC1)NC(=O)OC(C)(C)C | 128 to 130
O=C(NC(CS)Cc1ccccc1)N1CCN(c2cccc(C(F)(F)F)c2)CC1 (single isomer, unassigned; (+)) | 130 to 132
CC(=O)Oc1ccccc1C(=O)NC1CCN(CCCOc2ccccc2C#N)CC1 | 80 to 82
Cc1nn2c(C(F)(F)F)cc(-c3ccc(Cl)cc3)nc2c1C#N | 238
CCOC(=O)C1=Cc2cc(C)c(O)cc2OC1C(F)(F)F (stereo not drawn) | 151 to 153
CCCCNC(=O)c1nc2cnn(CC)c2nc1-c1ccccc1 | 127 to 128
O=C(Nc1cccc(O)c1)C(=O)N1CCC(Cc2ccccc2)CC1 | 158 to 160
Cn1c(=O)c2c(Cl)cc(Cl)cc2n(Cc2ccccc2)c1=O | 166 to 169
CC1(C)CCC(C)(C)c2cc(NC(=O)c3ccccc3)ccc21 | 146 to 148
CC(O)c1ccc(-c2ccc(C(=O)OCc3ccc(Cl)cc3)cc2)cc1 (single isomer, unassigned; (+)) | 108 to 110
N#CC=Cc1ccc([N+](=O)[O-])cc1 | 112
COC1OCC[C@@H]1NC(=O)[C@H](CC(C)C)NC(=O)Nc1cccc2ccccc12 (stereo partly drawn) | 184 to 185
COc1cc2c(cc1Br)CC(SC)=NN=C2c1ccc([N+](=O)[O-])cc1 | 225 to 227
CC(O)CN(CC(=O)O)CC(C)O (stereo not drawn) | 145
CN(C)C(=O)c1cn(Cc2ccccc2)c(=O)c2c1c1cc(F)ccc1n2C | 192 to 193
Cn1cc(-c2ccc(O)cc2)c(=O)c(-c2cccc(C(F)(F)F)c2)c1 | 162 to 163
Cc1cc(Cl)ccc1NC(=O)NCc1ccc2c(c1)CN(C1CCC(=O)NC1=O)C2=O (stereo not drawn) | 256 to 258
OCCCCCCCCCCCCCCCCCCCCO | 93
CC(C)c1csc(/C=C/c2cccc(NC(=O)Cc3cccc(CC(=O)O)c3)c2)n1 | 122 to 124
CCCCc1c[nH]c2c(Br)cccc2c1=O | 172
CC=NNC1=NCCc2ccccc21 | 152 to 154
CC(C)c1nsc(N=C(Br)N(C)C)c1C#N | 92 to 96

SMILES | melting point [°C]
O=C(O)CC[C@@H](Cc1ccc(OCc2ccccc2)cc1)NC(=O)CCCCCCc1ccccc1 | 128 to 130
COc1cc(CN(C)c2ncnc3c(N4CCOCC4)nc(N4CCC(N(C)C)CC4)nc23)cc2ccccc12 | 130
O=C1CCC(N2Cc3cc(CNC(=O)Nc4ccc(F)cc4)ccc3C2=O)C(=O)N1 (stereo not drawn) | 262 to 264
OC(COCc1ccccc1)C(O)COCc1ccccc1 (single isomer, unassigned; (+)) | 44 to 45
CS(=O)(=O)c1ccc(-c2cnn(-c3ccc([N+](=O)[O-])s3)c(=O)c2-c2ccc(F)cc2)cc1 | 252 to 253
C=CCOc1ccc(C=Cc2ccc([N+](=O)[O-])cc2)cc1 | 114
CCOC(=O)CCc1cc(OC)ccc1C(=O)CCCNC(C)=O | 59 to 61
C[C@@H](O)C(=O)NC[C@H]1CCc2ccc(S(=O)(=O)c3ccccc3)cc2O1 | 130 to 132
CC(C)(C)OC(=O)NCCc1ccnc(-c2nc(=O)c3ccccc3s2)c1 | 160 to 161
Nc1ccc2c(c1Br)COC2=O | 176 to 180
COc1cccc(-c2cncc(OC3SCC(O)C(O)C3O)c2)c1 (stereo not drawn) | 200
O=C(NC(=O)c1c(F)cccc1F)Nc1cccc(S(=O)(=O)C(F)(F)C(F)Cl)c1 (stereo not drawn) | 192 to 194
CCCN(CCC)c1c([N+](=O)[O-])cc(S(=O)(=O)N(C)SC)cc1[N+](=O)[O-] | 119 to 121
COC(=O)CCc1cc2c(OC)cccc2n1Cc1ccccc1 | 195 to 196
COc1ccc(S(=O)(=O)n2cc(F)c(N)nc2=O)cc1 | 158 to 162
O=S(=O)(CC1(c2ccccc2)CO1)c1ccccc1 (stereo not drawn) | 89
Oc1cccc(C(O)(c2nccs2)C(F)(F)F)c1 (stereo not drawn) | 94 to 96
COc1cccc(C(=O)Nc2ccccc2C(c2ccc(O)cc2)c2ccc(O)cc2)c1 | 165 to 168
COC(=O)c1cc2n(c1)CCc1ccccc1C2=O | 125 to 127
CC(=O)Nc1ccc2oc(-c3ccc(OCc4ccccc4)c(OCc4ccccc4)c3)c(O)c(=O)c2c1 | 229 to 230
CCOC(=O)C(=CNc1cc(C)nn1-c1ccccc1)C(=O)OCC | 70 to 72
CCC(n1cncn1)C(O)(Cn1cncn1)c1c(F)cccc1F (stereo not drawn) | 110 to 111
CC1CNc2cccc3c(=O)c(C(=O)O)cn1c23 (stereo not drawn) | > 250
O=S(=O)(F)c1cc(Cl)c(Cl)cc1Cl | 80 to 83
Cc1ccc(C(=O)Nc2ccc3ccc(Cl)nc3n2)s1 | 220
